≈ marks a conversion by molar mass, not a printed value.
Tests used:
[1] = Tableting property test; format: physicochemical; settings: average of five tabletings; 5 points surface has gloss, 1 point surface is chipped, 0 point tablets stick to pestle; 1000 kgf, 100 mg tablet
Protocol: The obtained powdery sample was compression-molded by using a tableting machine (Tableting Machine HT-P18A, Hata Iron Works, Ltd.; tableting diameter, 6.5 mm; tableting pressure, 1000 kgf; tablet weight, 100 mg) to obtain tablets. The obtained tablets were macroscopically observed, and graded according to the following criteria.
5 Points: Surface has gloss.
4 Points: Surface is slightly roughened.
3 Points: Surface is roughened.
2 Points: Surface is slightly chipped.
1 Point: Surface is chipped.
0 Point: Tablets stick to pestle, and cannot be unstuck.
The tableting was performed five times, and averages of the scores of the tablets were calculated.

[2] = Solubility test in water
Protocol: Each of the test compounds and the comparative compound was added to water, and the mixture was stirred at room temperature for 24 hours. The insoluble matter was removed by filtration using a membrane filter (0.2 μm). The filtrate was analyzed by high performance liquid chromatography (HPLC) to obtain the solubility.

[3] = tested on: tumors; settings: orally administered to mice; Non-patent documents 1 and 2; cited from earlier work
[4] = tested on: BxPC-3; experiment: Antitumor activity: cell proliferation inhibition (ATPlite); format: cell-based; settings: BxPC-3, 1000 cells/well, 3 days culture
Protocol: (§1) Cells at the logarithmic phase were inoculated on a 96-well plate at a density of 1000 cells/well (BxPC-3, MIA PaCa-2) or 3000 cells/well (Capan-1), and cultured overnight at 37° C. in a CO2 incubator. On the next day, serially diluted solutions of each test compound were added, and culture was performed for 3 days in an incubator. After completion of the culture, by using a cell proliferation assay kit ATPlite (Perkin Elmer), and a plate reader Envision (Perkin Elmer), emission was measured. Concentrations of the test compounds providing 50% of cell proliferation inhibition (IC50) were calculated by fitting using a sigmoid function. The solutions of the test compounds were prepared by diluting them with PBS (pH 7.4) at 10 mM, and further diluting the 10 mM solutions with PBS (pH 7.4), and used in the test.

[5] = tested on: Capan-1; experiment: as above; format: cell-based; settings: Capan-1, 3000 cells/well, 3 days culture
Protocol: as §1

[6] = tested on: MIA PaCa-2; experiment: as above; format: cell-based; settings: MIA PaCa-2, 1000 cells/well, 3 days culture
Protocol: as §1

[7] = Flowability test (compaction rate); format: physicochemical; settings: powder sieved 177 μm mesh; (compacted − loose bulk density)/compacted bulk density × 100
Text: The obtained powdery sample was roughly filled in a glass measuring cylinder (10 cm^3), the upper surface of the powder layer was horizontally smoothened, and the value of the volume was read. The weight of the powdery sample was divided with the volume to obtain loose bulk density (g/cm^3).
Then, the glass measuring cylinder filled with the powdery sample was tapped by using a general powdery characteristic measuring apparatus (Powdertester Type PT-E, Hosokawa Micron CORP.). When the volume of the powder layer no longer changed, the value of the volume was read. The weight of the powdery sample was divided with the volume to obtain compacted bulk density (g/cm^3).
The compaction rate (%) was obtained in accordance with the following equation. Compaction rate (%)=[(Compacted bulk density−Loose bulk density)/Compacted bulk density]×100

[8] = Stability test (deliquescence on storage); format: physicochemical; settings: stored 2 weeks, open state, 60° C. and 75% relative humidity, macroscopic observation
Protocol: The compounds of Examples 1 and 2 were stored for 2 weeks in an open state under conditions of 60° C. and 75% relative humidity. The test compounds were macroscopically observed after the storage, and presence or absence of deliquescence was examined.

Compound	Score (tableting property) [1]	solubility at 24 h ([2]; thermodynamic from solid) [µg/mL]	antitumor activity [3]	IC50 ([4]; Homo sapiens, 72 h) [nM]	IC50 ([5]; Homo sapiens, 72 h) [nM]	IC50 ([6]; Homo sapiens, 72 h) [nM]	Compaction rate [7] [%]	Solubility in water ([2]; room temperature, stirred 24 hours, 0.2 μm filtration, HPLC) [µg/mL]	presence or absence of deliquescence [8]	IC50 [4] [nM]	IC50 [5] [nM]	IC50 [6] [nM]
Nc1ccn([C@@H]2S[C@H](CO)[C@@H](O)[C@@H]2F)c(=O)n1 [Comparative compound, 1-(2-deoxy-2-fluoro-4-thio-β-D-arabinofuranosyl)cytosine]	1.0	2000 (≈ 7.65 mM)	potent antitumor activity	45	35	382	41					
CS(=O)(=O)O.Nc1ccn([C@@H]2S[C@H](CO)[C@@H](O)[C@@H]2F)c(=O)n1 [Example 1, methanesulfonate of 1-(2-deoxy-2-fluoro-4-thio-β-D-arabinofuranosyl)cytosine]	4.5						18	79000	did not deliquesce	45	36	373
Cl.Nc1ccn([C@@H]2S[C@H](CO)[C@@H](O)[C@@H]2F)c(=O)n1 [Example 2, hydrochloride of 1-(2-deoxy-2-fluoro-4-thio-β-D-arabinofuranosyl)cytosine]	5.0						21		did not deliquesce	41	31	417

From patent US9896471B2, “Salt of 1-(2-deoxy-2-fluoro-4-thio-β-D-arabinofuranosyl)cytosine” (FUJIFILM Corporation, priority 2012, dated 2018)
